Test results from ChEMBL document CHEMBL1821699, “1,5-Disubstituted indole derivatives as selective human neuronal nitric oxide synthase inhibitors” (Bioorg Med Chem Lett, 2011).

Molecular target: T1, Nitric oxide synthase 3 (Homo sapiens, UniProt P29474)
T1 sequence (P29474 whole entry): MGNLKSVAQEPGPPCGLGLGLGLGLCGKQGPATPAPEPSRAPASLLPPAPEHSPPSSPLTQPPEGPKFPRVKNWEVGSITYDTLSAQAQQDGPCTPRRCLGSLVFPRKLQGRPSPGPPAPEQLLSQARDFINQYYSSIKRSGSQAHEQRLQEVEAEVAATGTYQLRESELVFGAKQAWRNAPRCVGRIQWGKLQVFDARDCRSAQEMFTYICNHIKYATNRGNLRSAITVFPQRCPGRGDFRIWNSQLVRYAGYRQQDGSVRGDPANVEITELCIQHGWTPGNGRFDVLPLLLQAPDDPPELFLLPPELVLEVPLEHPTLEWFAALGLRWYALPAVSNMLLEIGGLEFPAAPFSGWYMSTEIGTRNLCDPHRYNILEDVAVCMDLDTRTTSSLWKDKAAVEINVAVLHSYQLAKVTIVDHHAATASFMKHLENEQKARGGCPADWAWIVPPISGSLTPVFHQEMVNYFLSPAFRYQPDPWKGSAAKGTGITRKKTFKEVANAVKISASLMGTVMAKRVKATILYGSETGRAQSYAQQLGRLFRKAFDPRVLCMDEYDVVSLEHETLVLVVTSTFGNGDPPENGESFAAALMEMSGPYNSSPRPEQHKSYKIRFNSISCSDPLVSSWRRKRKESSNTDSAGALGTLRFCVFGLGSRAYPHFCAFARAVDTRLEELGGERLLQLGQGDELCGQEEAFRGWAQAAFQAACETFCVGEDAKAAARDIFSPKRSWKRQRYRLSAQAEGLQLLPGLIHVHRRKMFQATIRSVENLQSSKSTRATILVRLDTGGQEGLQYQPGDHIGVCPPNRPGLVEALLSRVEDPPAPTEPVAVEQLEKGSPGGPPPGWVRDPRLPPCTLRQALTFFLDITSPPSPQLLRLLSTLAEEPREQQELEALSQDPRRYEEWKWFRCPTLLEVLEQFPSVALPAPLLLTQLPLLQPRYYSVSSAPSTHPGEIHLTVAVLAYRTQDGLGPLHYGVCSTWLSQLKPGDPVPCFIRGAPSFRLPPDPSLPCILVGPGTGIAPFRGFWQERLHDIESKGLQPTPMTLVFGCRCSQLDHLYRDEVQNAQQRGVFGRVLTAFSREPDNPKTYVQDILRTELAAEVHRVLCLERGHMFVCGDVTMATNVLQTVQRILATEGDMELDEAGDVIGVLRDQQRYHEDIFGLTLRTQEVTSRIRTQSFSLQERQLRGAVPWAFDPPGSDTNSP
Experiment: Inhibition of human recombinant eNOS expressed in Sf9 cells assessed as conversion of [3H]-L-arginine to [3H]-L-citrulline by radiometric method

Row | Compound | IC50
1 | CN1CCC[C@H]1CCn1ccc2cc(NC(=N)c3cccs3)ccc21 | 1.92 µM
2 | CN1CCC[C@@H]1CCn1ccc2cc(NC(=N)c3cccs3)ccc21 | 3.37 µM

Molecular target: Nitric oxide synthase, inducible (Homo sapiens, UniProt P35228)
Sequence (P35228 whole entry): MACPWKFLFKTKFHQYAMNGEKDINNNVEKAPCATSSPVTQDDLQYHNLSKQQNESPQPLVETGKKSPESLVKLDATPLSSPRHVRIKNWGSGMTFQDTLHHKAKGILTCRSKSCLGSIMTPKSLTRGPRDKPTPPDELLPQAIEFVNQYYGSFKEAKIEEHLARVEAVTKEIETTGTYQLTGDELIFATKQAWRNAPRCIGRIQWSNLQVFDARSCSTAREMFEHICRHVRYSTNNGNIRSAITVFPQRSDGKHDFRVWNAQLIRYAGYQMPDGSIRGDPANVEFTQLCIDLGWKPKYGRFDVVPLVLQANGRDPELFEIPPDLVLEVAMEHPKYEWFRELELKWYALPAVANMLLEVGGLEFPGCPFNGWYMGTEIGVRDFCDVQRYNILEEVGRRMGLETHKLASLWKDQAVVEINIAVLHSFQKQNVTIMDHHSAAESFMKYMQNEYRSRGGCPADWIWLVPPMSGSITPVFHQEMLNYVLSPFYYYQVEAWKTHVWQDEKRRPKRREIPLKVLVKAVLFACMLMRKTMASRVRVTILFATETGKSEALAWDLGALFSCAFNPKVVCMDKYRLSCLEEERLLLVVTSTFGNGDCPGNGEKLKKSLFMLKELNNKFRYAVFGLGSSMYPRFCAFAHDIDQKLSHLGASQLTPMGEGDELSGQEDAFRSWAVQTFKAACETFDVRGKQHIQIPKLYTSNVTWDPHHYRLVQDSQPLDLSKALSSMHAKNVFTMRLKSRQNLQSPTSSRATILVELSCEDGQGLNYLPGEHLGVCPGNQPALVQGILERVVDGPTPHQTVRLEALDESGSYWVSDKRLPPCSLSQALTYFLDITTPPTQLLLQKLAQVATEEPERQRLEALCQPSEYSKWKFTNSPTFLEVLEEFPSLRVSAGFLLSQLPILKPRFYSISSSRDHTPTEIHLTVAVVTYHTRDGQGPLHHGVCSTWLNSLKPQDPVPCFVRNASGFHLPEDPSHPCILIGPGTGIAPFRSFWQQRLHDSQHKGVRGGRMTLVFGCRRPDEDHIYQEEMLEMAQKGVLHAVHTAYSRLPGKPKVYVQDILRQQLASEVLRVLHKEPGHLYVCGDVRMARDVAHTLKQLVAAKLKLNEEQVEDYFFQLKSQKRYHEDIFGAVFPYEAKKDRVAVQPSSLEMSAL
Experiment: Inhibition of human recombinant iNOS expressed in Sf9 cells assessed as conversion of [3H]-L-arginine to [3H]-L-citrulline by radiometric method

Row | Compound | IC50
3 | N=C(Nc1ccc2c(ccn2CCCNC23CC4CC(CC(C4)C2)C3)c1)c1cccs1 | 18 µM
4 | CN(C)CCn1ccc2cc(NC(=N)c3cccs3)ccc21 | 15.7 µM
5 | CN1CCC[C@H]1CCn1ccc2cc(NC(=N)c3cccs3)ccc21 | 17 µM
6 | CN1CCCCC1CCn1ccc2cc(NC(=N)c3cccs3)ccc21 (stereo not drawn) | 9.8 µM
7 | CN1CCC[C@@H]1CCn1ccc2cc(NC(=N)c3cccs3)ccc21 | 22 µM
8 | CN1CCCC(n2ccc3cc(NC(=N)c4ccco4)ccc32)CC1 (single isomer, unassigned; (-)) | 20 µM
9 | CN1CCCC(n2ccc3cc(NC(=N)c4ccco4)ccc32)CC1 (stereo in doubt; (+)-15) | 73 µM

Other lines, results leading:

Row | IC50 | Compound
10 | 4.61 µM | N=C(Nc1ccc2c(ccn2CCN2CCCCC2)c1)c1cccs1
11 | 34 µM | N=C(Nc1ccc2c(ccn2CCCNC2CC2)c1)c1cccs1
12 | 41.6 µM | N=C(Nc1ccc2c(ccn2CCCN2CCOCC2)c1)c1cccs1
13 | 14 µM | CN1CCCC1CCn1ccc2cc(NC(=N)c3cccs3)ccc21 (racemic)
